ChEMBL document CHEMBL1139192, “Novel bis(indolyl)maleimide pyridinophanes that are potent, selective inhibitors of glycogen synthase kinase-3” (Bioorg Med Chem Lett, 2007)

What was measured:
[1] = target: Insulin-like growth factor 1 receptor (Homo sapiens) (UniProt P08069); test: Residual activity of human IGF1R at 1 uM relative to control
Mus musculus = species on record: Mus musculus; test: Inhibition of mouse MAPK2 at 1 uM relative to control; values are per cent of control
[2] = target: Protein kinase C eta type (Homo sapiens) (UniProt P24723); test: Residual activity of human PKCeta at 1 uM relative to control
Homo sapiens [3] = species on record: Homo sapiens; test: Inhibition of human MAPK2 at 1 uM relative to control; values are per cent of control
[4] = target: Mitogen-activated protein kinase 14 (Homo sapiens) (UniProt Q16539); test: Inhibition of human SAPK2a at 1 uM relative to control; values are per cent of control
[5] = target: Platelet-derived growth factor receptor alpha (Homo sapiens) (UniProt P16234); test: Inhibition of human PDGFRalpha at 1 uM relative to control; values are per cent of control
Chain of Platelet-derived growth factor receptor alpha (Homo sapiens) (P16234 whole entry): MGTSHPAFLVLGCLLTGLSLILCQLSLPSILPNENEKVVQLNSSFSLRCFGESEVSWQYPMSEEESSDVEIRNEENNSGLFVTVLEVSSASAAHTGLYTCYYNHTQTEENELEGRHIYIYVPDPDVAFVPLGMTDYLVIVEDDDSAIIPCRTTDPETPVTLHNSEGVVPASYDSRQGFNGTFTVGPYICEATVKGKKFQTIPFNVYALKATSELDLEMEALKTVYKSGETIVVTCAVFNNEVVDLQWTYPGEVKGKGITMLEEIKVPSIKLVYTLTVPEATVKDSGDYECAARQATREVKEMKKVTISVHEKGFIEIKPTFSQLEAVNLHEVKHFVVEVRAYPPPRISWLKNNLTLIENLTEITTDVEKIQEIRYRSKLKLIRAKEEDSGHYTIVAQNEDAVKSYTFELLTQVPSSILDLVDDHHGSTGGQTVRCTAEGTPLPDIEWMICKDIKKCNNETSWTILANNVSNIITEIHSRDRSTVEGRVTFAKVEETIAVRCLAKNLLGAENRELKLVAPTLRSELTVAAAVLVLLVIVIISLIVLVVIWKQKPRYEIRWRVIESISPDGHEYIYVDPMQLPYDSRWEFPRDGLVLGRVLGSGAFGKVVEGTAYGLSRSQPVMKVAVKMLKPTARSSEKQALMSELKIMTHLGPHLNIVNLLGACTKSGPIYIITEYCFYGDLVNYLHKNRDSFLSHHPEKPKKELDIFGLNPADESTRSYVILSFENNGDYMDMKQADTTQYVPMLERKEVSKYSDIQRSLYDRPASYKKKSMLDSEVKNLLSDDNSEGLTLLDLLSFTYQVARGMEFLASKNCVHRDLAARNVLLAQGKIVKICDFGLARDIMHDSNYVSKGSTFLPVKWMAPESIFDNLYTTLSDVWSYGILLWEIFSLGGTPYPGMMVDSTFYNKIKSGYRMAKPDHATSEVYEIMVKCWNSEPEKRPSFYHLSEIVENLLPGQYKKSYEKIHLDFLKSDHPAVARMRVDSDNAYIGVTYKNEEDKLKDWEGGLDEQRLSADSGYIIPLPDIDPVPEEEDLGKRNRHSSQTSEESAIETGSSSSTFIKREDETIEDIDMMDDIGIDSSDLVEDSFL

Homo sapiens [6] = species on record: Homo sapiens; test: Residual activity of human CDK2/Cyclin A at 1 uM relative to control
[7] = target: Cyclin-dependent kinase 5/CDK5 activator 1 (Homo sapiens) (UniProt Q00535+Q15078); test: Inhibition of human CDK5/p35 at 1 uM relative to control; values are per cent of control
Chain of Cyclin-dependent kinase 5/CDK5 activator 1 (Homo sapiens) (Q00535 whole entry): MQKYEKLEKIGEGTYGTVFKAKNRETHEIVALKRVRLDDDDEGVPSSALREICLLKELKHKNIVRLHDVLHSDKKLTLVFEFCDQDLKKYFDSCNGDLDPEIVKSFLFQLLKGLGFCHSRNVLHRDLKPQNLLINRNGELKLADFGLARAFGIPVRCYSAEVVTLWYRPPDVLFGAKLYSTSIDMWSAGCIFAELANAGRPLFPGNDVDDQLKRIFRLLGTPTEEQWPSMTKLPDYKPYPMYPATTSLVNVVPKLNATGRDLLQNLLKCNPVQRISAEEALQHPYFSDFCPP
Chain of Cyclin-dependent kinase 5/CDK5 activator 1 (Homo sapiens) (Q15078 99-307 partner limits assumed): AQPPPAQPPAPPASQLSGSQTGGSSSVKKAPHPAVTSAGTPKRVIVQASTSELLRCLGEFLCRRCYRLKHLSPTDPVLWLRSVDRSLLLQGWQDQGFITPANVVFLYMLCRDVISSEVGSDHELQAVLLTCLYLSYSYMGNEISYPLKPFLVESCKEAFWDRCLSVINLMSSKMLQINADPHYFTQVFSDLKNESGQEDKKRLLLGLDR

[8] = target: Glycogen synthase kinase-3 beta (Homo sapiens, UniProt P49841); test: Inhibition of human recombinant GSK3-beta
Chain of Glycogen synthase kinase-3 beta (P49841 whole entry): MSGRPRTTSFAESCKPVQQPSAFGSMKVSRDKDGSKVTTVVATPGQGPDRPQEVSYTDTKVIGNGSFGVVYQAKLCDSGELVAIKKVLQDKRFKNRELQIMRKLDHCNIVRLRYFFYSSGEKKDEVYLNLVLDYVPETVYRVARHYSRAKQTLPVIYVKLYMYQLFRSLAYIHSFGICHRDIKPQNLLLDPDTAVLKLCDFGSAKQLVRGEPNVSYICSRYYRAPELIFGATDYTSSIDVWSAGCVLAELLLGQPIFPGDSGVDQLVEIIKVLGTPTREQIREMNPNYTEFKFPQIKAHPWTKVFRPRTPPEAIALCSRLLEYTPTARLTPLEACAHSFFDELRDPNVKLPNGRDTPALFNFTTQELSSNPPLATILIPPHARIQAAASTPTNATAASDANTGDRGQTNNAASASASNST

[9] = target: T1, Dual specificity mitogen-activated protein kinase kinase 6 (Homo sapiens) (UniProt P52564); test: Inhibition of human MKK6 at 1 uM relative to control; values are per cent of control
T1 sequence (whole entry): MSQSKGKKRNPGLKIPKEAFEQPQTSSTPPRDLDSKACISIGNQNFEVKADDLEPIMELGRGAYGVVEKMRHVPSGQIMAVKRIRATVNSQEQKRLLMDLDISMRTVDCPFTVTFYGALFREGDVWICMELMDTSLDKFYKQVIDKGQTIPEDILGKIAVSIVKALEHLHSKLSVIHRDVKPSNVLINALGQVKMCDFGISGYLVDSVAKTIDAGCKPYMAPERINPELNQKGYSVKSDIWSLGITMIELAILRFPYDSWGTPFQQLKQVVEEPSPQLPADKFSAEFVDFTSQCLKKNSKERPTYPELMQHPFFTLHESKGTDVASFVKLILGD

[10] = target: Hepatocyte growth factor receptor (Homo sapiens) (UniProt P08581); test: Inhibition of human Met at 1 uM relative to control; values are per cent of control
[11] = target: T2, Dual specificity mitogen-activated protein kinase kinase 7 (Homo sapiens) (UniProt O14733); test: Inhibition of human MKK7-beta at 1 uM relative to control; values are per cent of control
T2 sequence (whole entry): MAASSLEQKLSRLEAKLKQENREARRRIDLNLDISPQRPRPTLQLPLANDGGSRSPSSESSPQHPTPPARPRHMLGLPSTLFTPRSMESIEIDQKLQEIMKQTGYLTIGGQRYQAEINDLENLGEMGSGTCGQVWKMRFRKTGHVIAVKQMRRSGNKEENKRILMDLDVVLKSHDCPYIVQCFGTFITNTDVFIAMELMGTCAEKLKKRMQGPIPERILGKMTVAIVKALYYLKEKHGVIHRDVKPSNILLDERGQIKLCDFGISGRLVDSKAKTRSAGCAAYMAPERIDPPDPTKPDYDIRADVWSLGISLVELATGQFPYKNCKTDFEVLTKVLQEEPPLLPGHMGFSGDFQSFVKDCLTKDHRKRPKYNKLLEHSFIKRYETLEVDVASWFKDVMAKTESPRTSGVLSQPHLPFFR

[12] = target: Casein kinase II (Homo sapiens) (UniProt P67870+P68400+P19784); test: Inhibition of human CK2 at 1 uM relative to control; values are per cent of control
[13] = target: Mitogen-activated protein kinase 8 (Homo sapiens) (UniProt P45983); test: Inhibition of human JNK1alpha1 at 1 uM relative to control; values are per cent of control
Chain of Mitogen-activated protein kinase 8 (Homo sapiens) (P45983 whole entry): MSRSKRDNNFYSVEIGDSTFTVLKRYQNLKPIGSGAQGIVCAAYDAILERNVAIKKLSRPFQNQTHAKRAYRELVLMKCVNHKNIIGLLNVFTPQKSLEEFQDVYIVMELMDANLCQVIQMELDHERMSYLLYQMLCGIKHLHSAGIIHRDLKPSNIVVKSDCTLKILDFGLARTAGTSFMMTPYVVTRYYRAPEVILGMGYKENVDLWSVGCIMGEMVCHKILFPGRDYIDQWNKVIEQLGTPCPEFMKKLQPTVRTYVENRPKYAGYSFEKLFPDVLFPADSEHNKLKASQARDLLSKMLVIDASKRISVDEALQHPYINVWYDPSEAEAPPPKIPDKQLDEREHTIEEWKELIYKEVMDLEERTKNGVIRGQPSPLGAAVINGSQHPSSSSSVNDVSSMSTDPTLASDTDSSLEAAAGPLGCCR

[14] = target: Tyrosine-protein kinase CSK (Homo sapiens) (UniProt P41240); test: Inhibition of human CSK at 1 uM relative to control; values are per cent of control
[15] = target: BDNF/NT-3 growth factors receptor (Homo sapiens, UniProt Q16620); test: Residual activity of human TrkB at 1 uM relative to control
Chain of BDNF/NT-3 growth factors receptor (Q16620 32-822 limits assumed): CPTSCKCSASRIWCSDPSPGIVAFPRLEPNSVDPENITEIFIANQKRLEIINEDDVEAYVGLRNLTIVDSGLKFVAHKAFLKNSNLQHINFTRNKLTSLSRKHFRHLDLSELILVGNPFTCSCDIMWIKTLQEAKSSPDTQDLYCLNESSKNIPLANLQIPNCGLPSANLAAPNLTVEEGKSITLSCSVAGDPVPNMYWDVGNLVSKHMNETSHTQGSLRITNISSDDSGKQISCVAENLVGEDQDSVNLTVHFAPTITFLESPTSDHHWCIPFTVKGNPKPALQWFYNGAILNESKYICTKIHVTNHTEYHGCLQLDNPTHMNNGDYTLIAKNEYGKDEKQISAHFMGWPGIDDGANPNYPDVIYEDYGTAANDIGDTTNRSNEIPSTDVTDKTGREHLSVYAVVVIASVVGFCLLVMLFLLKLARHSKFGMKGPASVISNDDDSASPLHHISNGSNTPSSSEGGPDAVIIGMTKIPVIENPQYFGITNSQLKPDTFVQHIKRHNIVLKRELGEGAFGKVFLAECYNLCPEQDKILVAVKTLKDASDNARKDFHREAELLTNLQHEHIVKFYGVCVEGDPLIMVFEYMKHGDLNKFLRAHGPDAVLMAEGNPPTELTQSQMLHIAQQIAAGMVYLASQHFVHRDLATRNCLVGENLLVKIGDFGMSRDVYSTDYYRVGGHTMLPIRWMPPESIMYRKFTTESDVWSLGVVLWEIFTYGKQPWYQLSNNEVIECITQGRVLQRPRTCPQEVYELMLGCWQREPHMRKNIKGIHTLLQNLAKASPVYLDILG

[16] = target: Serine/threonine-protein kinase Chk2 (Homo sapiens) (UniProt O96017); test: Inhibition of human CHK2 at 1 uM relative to control; values are per cent of control
Chain of Serine/threonine-protein kinase Chk2 (Homo sapiens) (O96017 whole entry): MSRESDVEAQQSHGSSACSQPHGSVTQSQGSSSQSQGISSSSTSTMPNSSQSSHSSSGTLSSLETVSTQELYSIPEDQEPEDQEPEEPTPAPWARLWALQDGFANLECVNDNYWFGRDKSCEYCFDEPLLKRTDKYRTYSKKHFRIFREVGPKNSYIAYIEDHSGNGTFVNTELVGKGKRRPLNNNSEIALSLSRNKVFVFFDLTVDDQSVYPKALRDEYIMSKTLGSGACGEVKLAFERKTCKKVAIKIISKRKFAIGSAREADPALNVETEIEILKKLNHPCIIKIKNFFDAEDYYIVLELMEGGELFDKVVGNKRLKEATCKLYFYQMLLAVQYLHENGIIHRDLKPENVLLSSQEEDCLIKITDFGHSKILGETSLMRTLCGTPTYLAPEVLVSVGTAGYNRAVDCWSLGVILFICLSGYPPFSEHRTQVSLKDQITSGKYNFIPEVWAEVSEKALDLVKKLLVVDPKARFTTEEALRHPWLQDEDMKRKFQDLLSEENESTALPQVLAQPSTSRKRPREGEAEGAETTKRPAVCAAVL

[17] = target: T3, Protein kinase C zeta type (Homo sapiens) (UniProt Q05513); test: Residual activity of human PKCzeta at 1 uM relative to control
T3 sequence (whole entry): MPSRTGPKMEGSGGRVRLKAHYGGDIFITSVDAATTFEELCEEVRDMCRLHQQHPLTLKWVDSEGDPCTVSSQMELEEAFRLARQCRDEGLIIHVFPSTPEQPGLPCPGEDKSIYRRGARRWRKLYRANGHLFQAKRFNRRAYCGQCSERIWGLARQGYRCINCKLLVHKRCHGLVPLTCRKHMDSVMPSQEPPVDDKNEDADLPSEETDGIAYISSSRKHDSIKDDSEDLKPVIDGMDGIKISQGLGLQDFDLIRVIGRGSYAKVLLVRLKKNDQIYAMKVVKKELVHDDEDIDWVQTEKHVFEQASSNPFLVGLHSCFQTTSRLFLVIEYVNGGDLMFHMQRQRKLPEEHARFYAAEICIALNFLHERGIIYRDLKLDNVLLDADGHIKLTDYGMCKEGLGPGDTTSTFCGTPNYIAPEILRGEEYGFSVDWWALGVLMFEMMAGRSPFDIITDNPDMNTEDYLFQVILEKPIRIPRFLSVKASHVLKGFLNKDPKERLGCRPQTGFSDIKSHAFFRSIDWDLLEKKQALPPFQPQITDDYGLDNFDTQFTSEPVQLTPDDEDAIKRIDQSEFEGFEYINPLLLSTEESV

[18] = target: Tyrosine-protein kinase Lck (Homo sapiens) (UniProt P06239); test: Inhibition of human Lck at 1 uM relative to control; values are per cent of control
Chain of Tyrosine-protein kinase Lck (Homo sapiens) (P06239 2-509 limits assumed): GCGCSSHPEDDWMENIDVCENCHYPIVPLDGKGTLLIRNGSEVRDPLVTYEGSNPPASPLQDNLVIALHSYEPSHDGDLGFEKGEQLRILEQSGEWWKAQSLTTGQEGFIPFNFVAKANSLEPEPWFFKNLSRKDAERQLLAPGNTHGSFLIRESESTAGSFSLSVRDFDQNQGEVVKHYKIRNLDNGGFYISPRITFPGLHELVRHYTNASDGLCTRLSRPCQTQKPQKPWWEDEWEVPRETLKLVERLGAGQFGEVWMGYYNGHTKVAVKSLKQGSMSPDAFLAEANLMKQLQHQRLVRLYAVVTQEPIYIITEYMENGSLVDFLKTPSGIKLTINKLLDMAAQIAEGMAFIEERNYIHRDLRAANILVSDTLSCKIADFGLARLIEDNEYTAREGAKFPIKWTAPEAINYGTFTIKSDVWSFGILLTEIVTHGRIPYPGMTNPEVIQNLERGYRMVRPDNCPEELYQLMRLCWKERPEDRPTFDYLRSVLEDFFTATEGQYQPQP

[19] = target: MAP kinase-activated protein kinase 2 (Homo sapiens) (UniProt P49137); test: Inhibition of MAPKAPK2 at 1 uM relative to control; values are per cent of control
Chain of MAP kinase-activated protein kinase 2 (Homo sapiens) (P49137 whole entry, looked up): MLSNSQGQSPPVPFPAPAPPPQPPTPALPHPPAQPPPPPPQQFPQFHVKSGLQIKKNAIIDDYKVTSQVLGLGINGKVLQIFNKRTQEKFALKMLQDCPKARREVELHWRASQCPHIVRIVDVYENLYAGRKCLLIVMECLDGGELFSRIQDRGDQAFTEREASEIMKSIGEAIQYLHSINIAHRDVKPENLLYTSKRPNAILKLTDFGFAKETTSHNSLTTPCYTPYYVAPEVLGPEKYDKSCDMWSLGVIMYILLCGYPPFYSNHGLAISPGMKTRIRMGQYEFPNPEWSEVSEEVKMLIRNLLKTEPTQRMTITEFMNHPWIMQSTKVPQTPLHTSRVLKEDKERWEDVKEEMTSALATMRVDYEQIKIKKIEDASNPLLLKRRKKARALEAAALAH

| Structure (SMILES) | residual activity [1] | residual activity (Mus musculus) | residual activity [2] | residual activity (Homo sapiens [3]) | residual activity [4] | residual activity [5] | residual activity (Homo sapiens [6]) | residual activity [7] | IC50 [8] | residual activity [9] | residual activity [10] | residual activity [11] | residual activity [12] | residual activity [13] | residual activity [14] | residual activity [15] | residual activity [16] | residual activity [17] | residual activity [18] | residual activity [19] |
| --- | --- | --- | --- | --- | --- | --- | --- | --- | --- | --- | --- | --- | --- | --- | --- | --- | --- | --- | --- | --- |
| O=C1NC(=O)C2=C1c1cn(c3ccccc13)CCCc1ccc(c(N3CCCC3)n1)CCCn1cc2c2ccccc21 | 106% | 99% | 90% | 88% | 93% | 113% | 88% | 104% | 30 nM | 85% | 132% | 85% | 113% | 104% | 129% | 106% | 91% | 116% | 90% |  |
| CN(C)c1nc2ccc1CCCn1cc(c3ccccc31)C1=C(C(=O)NC1=O)c1cn(c3ccccc13)CC2 | 84% | 95% | 104% | 102% | 108% | 107% | 120% | 99% | 3 nM | 102% | 121% | 88% | 107% | 102% | 95% |  | 91% | 98% | 96% | 98% |
| CN(C)c1cc2cc(n1)CCCn1cc(c3ccccc31)C1=C(C(=O)NC1=O)c1cn(c3ccccc13)CCC2 | 37% | 95% | 117% | 104% | 92% | 119% | 80% | 105% | 7 nM | 86% | 132% | 78% | 111% | 105% | 133% | 98% | 94% | 105% | 100% | 101% |
| O=C1NC(=O)C2=C1c1cn(c3ccccc13)CCCc1cc(nc(N3CCCC3)c1)CCCn1cc2c2ccccc21 | 42% | 103% | 121% | 92% | 92% | 126% | 88% | 99% | 11 nM | 91% | 129% | 97% | 108% | 108% | 125% | 105% | 84% | 99% | 99% | 108% |
